From PubChem BioAssay AID2060607 (Molecular Pharmacology Branch, DTP, NCI, 2025)

Tested on: 876862-298-R-J1-PDC complex spheroids, viability % test/control
Test: Anticancer human tumor 876862-298-R-J1-PDC patient-derived endometrial carcinoma cell line growth inhibition [CLK]
Settings: for IC50: curve of first compound; for viability, T/C: stronger effect = lower value
Outline: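 Multi-cell-type spheroids combined patient-derived tumor cells with HUVEC endothelial cells and human mesenchymal stem cells. Paired agents were dosed in half-log steps down from about clinical Cmax, or from 10 microM where Cmax was unknown.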

[1] = second compound 0.0316 µM, first compound 0.0316 µM
[2] = second compound 0.0316 µM, first compound 0.1 µM
[3] = second compound 0.1 µM, first compound 0.0316 µM
[4] = second compound 0.1 µM, first compound 0.1 µM
[5] = second compound 0.316 µM, first compound 0.0316 µM
[6] = second compound 0.316 µM, first compound 0.1 µM
[7] = second compound 1 µM, first compound 0.0316 µM
[8] = second compound 1 µM, first compound 0.1 µM
[9] = second compound 3.16 µM, first compound 0.0316 µM
[10] = second compound 3.16 µM, first compound 0.1 µM
[11] = second compound 10 µM, first compound 0.0316 µM
[12] = second compound 10 µM, first compound 0.1 µM
[13] = second compound 0.0316 µM, first compound 0.316 µM
[14] = second compound 0.0316 µM, first compound 1 µM
[15] = second compound 0.0316 µM, first compound 3.16 µM
[16] = second compound 0.0316 µM, first compound 10 µM
[17] = second compound 0.1 µM, first compound 0.316 µM
[18] = second compound 0.1 µM, first compound 1 µM
[19] = second compound 0.1 µM, first compound 3.16 µM
[20] = second compound 0.1 µM, first compound 10 µM
[21] = second compound 0.316 µM, first compound 0.316 µM
[22] = second compound 0.316 µM, first compound 1 µM
[23] = second compound 0.316 µM, first compound 3.16 µM
[24] = second compound 0.316 µM, first compound 10 µM
[25] = second compound 1 µM, first compound 0.316 µM
[26] = second compound 1 µM, first compound 1 µM
[27] = second compound 1 µM, first compound 3.16 µM
[28] = second compound 1 µM, first compound 10 µM
[29] = second compound 3.16 µM, first compound 0.316 µM
[30] = second compound 3.16 µM, first compound 1 µM
[31] = second compound 3.16 µM, first compound 3.16 µM
[32] = second compound 3.16 µM, first compound 10 µM
[33] = second compound 10 µM, first compound 0.316 µM
[34] = second compound 10 µM, first compound 1 µM
[35] = second compound 10 µM, first compound 3.16 µM
[36] = second compound 10 µM, first compound 10 µM
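Further: spheroids exposed to drugs for 7 days before readout.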
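Wherever viability, T/C is given: 100% = DMSO vehicle control wells.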

## Cn1ncnc1[C@H]1c2n[nH]c(=O)c3cc(F)cc(c23)N[C@@H]1c1ccc(F)cc1 + CN1CCN(c2cc(C(=O)Nc3cc4cc(-c5cnn(C)c5)ccc4cn3)ccn2)CC1
Second compound 0.0316 µM
  IC50: > 100 nM
Second compound 0.1 µM
  IC50: < 0.316 nM
Second compound 0.316 µM
  IC50: < 0.316 nM
Second compound 1 µM
  IC50: < 0.316 nM
Second compound 3.16 µM
  IC50: < 0.316 nM
Second compound 10 µM
  IC50: < 0.316 nM
Second compound 0.0316 µM, first compound 0.000316 µM
  viability, T/C: 94.8%
Second compound 0.0316 µM, first compound 0.001 µM
  viability, T/C: 81.4%
Second compound 0.0316 µM, first compound 0.00316 µM
  viability, T/C: 89.7%
Second compound 0.0316 µM, first compound 0.01 µM
  viability, T/C: 87%
[1]
  viability, T/C: 99.8%
[2]
  viability, T/C: 81.6%
Second compound 0.1 µM, first compound 0.000316 µM
  viability, T/C: 44.7%
Second compound 0.1 µM, first compound 0.001 µM
  viability, T/C: 48.4%
Second compound 0.1 µM, first compound 0.00316 µM
  viability, T/C: 44.7%
Second compound 0.1 µM, first compound 0.01 µM
  viability, T/C: 48%
[3]
  viability, T/C: 43.2%
[4]
  viability, T/C: 37.9%
Second compound 0.316 µM, first compound 0.000316 µM
  viability, T/C: 2.64%
Second compound 0.316 µM, first compound 0.001 µM
  viability, T/C: 2.72%
Second compound 0.316 µM, first compound 0.00316 µM
  viability, T/C: 2.87%
Second compound 0.316 µM, first compound 0.01 µM
  viability, T/C: 3.16%
[5]
  viability, T/C: 2.95%
[6]
  viability, T/C: 2.25%
Second compound 1 µM, first compound 0.000316 µM
  viability, T/C: 0.47%
Second compound 1 µM, first compound 0.001 µM
  viability, T/C: 0.71%
Second compound 1 µM, first compound 0.00316 µM
  viability, T/C: 1%
Second compound 1 µM, first compound 0.01 µM
  viability, T/C: 0.8%
[7]
  viability, T/C: 0.52%
[8]
  viability, T/C: 0.74%
Second compound 3.16 µM, first compound 0.000316 µM
  viability, T/C: 0.96%
Second compound 3.16 µM, first compound 0.001 µM
  viability, T/C: 0.86%
Second compound 3.16 µM, first compound 0.00316 µM
  viability, T/C: 0.88%
Second compound 3.16 µM, first compound 0.01 µM
  viability, T/C: 0.88%
[9]
  viability, T/C: 1.01%
[10]
  viability, T/C: 0.64%
Second compound 10 µM, first compound 0.000316 µM
  viability, T/C: 0.56%
Second compound 10 µM, first compound 0.001 µM
  viability, T/C: 0.62%
Second compound 10 µM, first compound 0.00316 µM
  viability, T/C: 0.88%
Second compound 10 µM, first compound 0.01 µM
  viability, T/C: 0.76%
[11]
  viability, T/C: 0.63%
[12]
  viability, T/C: 0.56%

## Nc1ccn(C2OC(CO)C(O)C2(F)F)c(=O)n1 (stereo unspecified) + CN1CCN(c2cc(C(=O)Nc3cc4cc(-c5cnn(C)c5)ccc4cn3)ccn2)CC1
Second compound 0.0316 µM
  IC50: < 31.6 nM
Second compound 0.1 µM
  IC50: < 31.6 nM
Second compound 0.316 µM
  IC50: < 31.6 nM
Second compound 1 µM
  IC50: < 31.6 nM
Second compound 3.16 µM
  IC50: < 31.6 nM
Second compound 10 µM
  IC50: < 31.6 nM
[1]
  viability, T/C: 22.6%
[2]
  viability, T/C: 8.64%
[13]
  viability, T/C: 6.4%
[14]
  viability, T/C: 7.52%
[15]
  viability, T/C: 6.95%
[16]
  viability, T/C: 5.95%
[3]
  viability, T/C: 13.8%
[4]
  viability, T/C: 8.73%
[17]
  viability, T/C: 7.61%
[18]
  viability, T/C: 7.32%
[19]
  viability, T/C: 7.36%
[20]
  viability, T/C: 6.15%
[5]
  viability, T/C: 1.98%
[6]
  viability, T/C: 2.23%
[21]
  viability, T/C: 2.31%
[22]
  viability, T/C: 2.07%
[23]
  viability, T/C: 1.76%
[24]
  viability, T/C: 1.74%
[7]
  viability, T/C: 0.86%
[8]
  viability, T/C: 0.6%
[25]
  viability, T/C: 1.16%
[26]
  viability, T/C: 0.96%
[27]
  viability, T/C: 0.79%
[28]
  viability, T/C: 0.99%
[9]
  viability, T/C: 0.84%
[10]
  viability, T/C: 0.93%
[29]
  viability, T/C: 0.9%
[30]
  viability, T/C: 0.86%
[31]
  viability, T/C: 1.01%
[32]
  viability, T/C: 0.93%
[11]
  viability, T/C: 0.55%
[12]
  viability, T/C: 0.43%
[33]
  viability, T/C: 0.48%
[34]
  viability, T/C: 0.64%
[35]
  viability, T/C: 0.74%
[36]
  viability, T/C: 0.72%

## O=c1[nH]cc(F)c(=O)[nH]1 + CN1CCN(c2cc(C(=O)Nc3cc4cc(-c5cnn(C)c5)ccc4cn3)ccn2)CC1
Second compound 0.0316 µM
  IC50: 8770 nM
Second compound 0.1 µM
  IC50: < 31.6 nM
Second compound 0.316 µM
  IC50: < 31.6 nM
Second compound 1 µM
  IC50: < 31.6 nM
Second compound 3.16 µM
  IC50: < 31.6 nM
Second compound 10 µM
  IC50: < 31.6 nM
[1]
  viability, T/C: 94.5%
[2]
  viability, T/C: 89.6%
[13]
  viability, T/C: 88.8%
[14]
  viability, T/C: 83%
[15]
  viability, T/C: 55.9%
[16]
  viability, T/C: 49.4%
[3]
  viability, T/C: 41.8%
[4]
  viability, T/C: 52.2%
[17]
  viability, T/C: 47.8%
[18]
  viability, T/C: 41.9%
[19]
  viability, T/C: 31.5%
[20]
  viability, T/C: 29.9%
[5]
  viability, T/C: 3.11%
[6]
  viability, T/C: 2.75%
[21]
  viability, T/C: 3.62%
[22]
  viability, T/C: 2.92%
[23]
  viability, T/C: 2.73%
[24]
  viability, T/C: 2.79%
[7]
  viability, T/C: 0.65%
[8]
  viability, T/C: 0.89%
[25]
  viability, T/C: 0.91%
[26]
  viability, T/C: 0.83%
[27]
  viability, T/C: 0.68%
[28]
  viability, T/C: 0.7%
[9]
  viability, T/C: 0.68%
[10]
  viability, T/C: 1.36%
[29]
  viability, T/C: 1.24%
[30]
  viability, T/C: 0.98%
[31]
  viability, T/C: 1.14%
[32]
  viability, T/C: 1.44%
[11]
  viability, T/C: 0.57%
[12]
  viability, T/C: 0.53%
[33]
  viability, T/C: 0.54%
[34]
  viability, T/C: 0.77%
[35]
  viability, T/C: 0.83%
[36]
  viability, T/C: 0.73%
